# Results from patent US11427567B2, “Imidazolyl pyrimidinylamine compounds as CDK2 inhibitors” (Incyte Corporation, priority 2019, dated 2022).
# pIC50: −log10 of the molar value.
# Target: CDK2/Cyclin E1 (Homo sapiens (Human), UniProt P24941)
# Experiment: CDK2/Cyclin E1 HTRF enzyme activity assay (Example A)
# Format: biochemical
# Settings: 1 mM ATP
# Experimental: Assays were conducted in white 384-well polystyrene plates in a final reaction volume of 8 μL. […] HTRF signals were read after 1 hour at room temperature on a PHERAstar FS plate reader (BMG Labtech). Data was analyzed with IDBS XLFit and GraphPad Prism 5.0 software using a three or four parameter dose response curve to determine IC50 for each compound.
row,SMILES,pIC50
1,"Cc1nc(-c2nc(NC3CCN(S(C)(=O)=O)CC3)ncc2C(F)(F)F)cn1-c1ccccc1F [Example 102, 4-(1-(2-Fluorophenyl)-2-methyl-1H-imidazol-4-yl)-N-(1-(methylsulfonyl)piperidin-4-yl)-5-(trifluoromethyl)pyrimidin-2-amine]",≥ 7.30
2,"CS(=O)(=O)N1CCC(Nc2ncc(C(F)(F)F)c(-c3cn(-c4cccc(C#N)c4Br)cn3)n2)CC1 [Example 63, 2-Bromo-3-(4-(2-((1-(methylsulfonyl)piperidin-4-yl)amino)-5-(trifluoromethyl)pyrimidin-4-yl)-1H-imidazol-1-yl)benzonitrile]",≥ 7.30
3,"Cn1cnc(-c2nc(NC3CCN(S(C)(=O)=O)CC3)ncc2C(F)(F)F)c1Br [Example 13, 4-(5-Bromo-1-methyl-1H-imidazol-4-yl)-N-(1-(methylsulfonyl)piperidin-4-yl)-5-(trifluoromethyl)pyrimidin-2-amine]",≥ 7.30
4,"Cc1c(-n2cnc(-c3nc(NC4CCN(S(C)(=O)=O)CC4)ncc3C(F)(F)F)c2)ccc2nccnc12 [Example 166, 4-(1-(5-Methylquinoxalin-6-yl)-1H-imidazol-4-yl)-N-(1-(methylsulfonyl)piperidin-4-yl)-5-(trifluoromethyl)pyrimidin-2-amine]",≥ 7.30
5,"Cc1nc(-c2nc(NC3CCN(S(C)(=O)=O)CC3)ncc2C(F)(F)F)cn1-c1ccc(CN2CCC2)cc1F [Example 281, 4-(1-(4-(Azetidin-1-ylmethyl)-2-fluorophenyl)-2-methyl-1H-imidazol-4-yl)-N-(1-(methylsulfonyl)piperidin-4-yl)-5-(trifluoromethyl)pyrimidin-2-amine]",≥ 7.30
6,"C[C@@H]1CN(S(C)(=O)=O)CC[C@@H]1Nc1ncc(C(F)(F)F)c(-c2cn(-c3ccc(CNCC#N)cc3Cl)cn2)n1 [Example 217, 2-((3-Chloro-4-(4-(2-(((3R,4S)-3-methyl-1-(methylsulfonyl)-piperidin-4-yl)amino)-5-(trifluoromethyl)-pyrimidin-4-yl)-1H-imidazol-1-yl)benzyl)-amino)acetonitrile]",≥ 7.30
7,"CN1CCN(c2ccc(-n3cnc(-c4nc(NC5CCN(S(C)(=O)=O)CC5)ncc4C(F)(F)F)c3)c(C#N)c2)CC1 [Example 430, 5-(4-Methylpiperazin-1-yl)-2-(4-(2-((1-(methylsulfonyl)piperidin-4-yl)amino)-5-(trifluoromethyl)pyrimidin-4-yl)-1H-imidazol-1-yl)benzonitrile]",≥ 7.30
8,"COc1nccc(-n2cnc(-c3nc(NC4CCN(S(C)(=O)=O)CC4)ncc3C(F)(F)F)c2)c1C [Example 312, 4-(1-(2-Methoxy-3-methylpyridin-4-yl)-1H-imidazol-4-yl)-N-(1-(methylsulfonyl)piperidin-4-yl)-5-(trifluoromethyl)pyrimidin-2-amine]",≥ 7.30
9,"CCNCc1ccc(-n2cnc(-c3nc(NC4CCN(S(C)(=O)=O)CC4)ncc3C(F)(F)F)c2)c(C#N)c1 [Example 341, 5-((Ethylamino)methyl)-2-(4-(2-((1-(methylsulfonyl)piperidin-yl)amino)-5-(trifluoromethyl)pyrimidin-4-yl)-1H-imidazol-1-yl)benzonitrile]",≥ 7.30
10,"CS(=O)(=O)N1CCC(Nc2ncc(C(F)(F)F)c(-c3cn(-c4ccc(C(F)(F)F)nc4C#N)cn3)n2)CC1 [Example 64, 3-(4-(2-((1-(Methylsulfonyl)piperidin-4-yl)amino)-5-(trifluoromethyl)pyrimidin-4-yl)-1H-imidazol-1-yl)-6-(trifluoromethyl)picolinonitrile]",≥ 7.30
11,"CNCc1ccc(-n2cnc(-c3nc(NC4CCN(S(C)(=O)=O)CC4)ncc3C(F)(F)F)c2)c(Cl)c1 [Example 3, 4-(1-(2-Chloro-4-((methylamino)methyl)phenyl)-1H-imidazol-4-yl)-N-(1-(methylsulfonyl)piperidin-4-yl)-5-(trifluoromethyl)pyrimidin-2-amine]",≥ 7.30
12,"Cc1nc(-c2nc(NC3CCN(S(C)(=O)=O)CC3)ncc2C(F)(F)F)cn1-c1ccc(CN2CC(C)(O)C2)cc1F [Example 354, 1-(3-Fluoro-4-(2-methyl-4-(2-((1-(methylsulfonyl)piperidin-4-yl)amino)-5-(trifluoromethyl)pyrimidin-4-yl)-1H-imidazol-1-yl)benzyl)-3-methylazetidin-3-ol]",≥ 7.30
13,"Cc1nc(-c2nc(NC3CCN(S(C)(=O)=O)CC3)ncc2C#N)cn1-c1ccc(CN(C)C)cc1Cl [Example 288, 4-(1-(2-Chloro-4-((dimethylamino)methyl)phenyl)-2-methyl-1H-imidazol-4-yl)-2-((1-(methylsulfonyl)piperidin-4-yl)amino)pyrimidine-5-carbonitrile]",≥ 7.30
14,"Cc1nc(-c2nc(NC3CCN(S(C)(=O)=O)CC3)ncc2C(F)(F)F)cn1-c1ccc(N2CC(C)(O)C2)cc1F [Example 456, 1-(3-Fluoro-4-(2-methyl-4-(2-((1-(methylsulfonyl)piperidin-4-yl)amino)-5-(trifluoromethyl)pyrimidin-4-yl)-1H-imidazol-1-yl)phenyl)-3-methylazetidin-3-ol]",≥ 7.30
15,"CS(=O)(=O)N1CC[C@H](Nc2ncc(C(F)(F)F)c(-c3cn(CC(F)F)cn3)n2)[C@H](F)C1 [Example 330, 4-(1-(2,2-Difluoroethyl)-1H-imidazol-4-yl)-N-((3R,4S)-3-fluoro-1-(methylsulfonyl)piperidin-4-yl)-5-(trifluoromethyl)pyrimidin-2-amine]",≥ 7.30
16,"CCN1CCN(Cc2cc(F)c(-n3cnc(-c4nc(NC5CCN(S(C)(=O)=O)CC5)ncc4C(F)(F)F)c3)c(Cl)c2)CC1 [Example 396, 4-(1-(2-Chloro-4-((4-ethylpiperazin-1-yl)methyll)-6-fluorophenyl)-1H-imidazol-4-yl)-N-(1-(methylsulfonyl)piperidin-4-yl)-5-(trifluoromethyl)pyrimidin-2-amine]",≥ 7.30
17,"CC1CN(Cc2ccc(-n3cnc(-c4nc(N[C@H]5CCN(S(C)(=O)=O)C[C@H]5F)ncc4C(F)(F)F)c3)c(Cl)c2)C1 [Example 224, 4-(1-(2-Chloro-4-((3-methylazetidin-1-yl)methyl)phenyl)-1H-imidazol-4-yl)-N-((3R,4S)-3-fluoro-1-(methylsulfonyl)-piperidin-4-yl)-5-(trifluoromethyl)-pyrimidin-2-amine]",≥ 7.30
18,"CNCc1ccc(-n2cnc(-c3nc(NC4CCN(S(C)(=O)=O)CC4)ncc3C(F)(F)F)c2)c(C)c1 [Example 272, 4-(1-(2-Methyl-4-((methylamino)methyl)phenyl)-1H-imidazol-4-yl)-N-(1-(methylsulfonyl)piperidin-4-yl)-5-(trifluoromethyl)pyrimidin-2-amine]",≥ 7.30

# Further lines, results first:
row,pIC50,SMILES
1,≥ 7.30,"Cc1nc(-c2nc(NC3CCN(S(C)(=O)=O)CC3)ncc2C(F)(F)F)cn1-c1ccc(N2CCC(C)(N3CCCC3)CC2)cc1F [Example 414, 4-(1-(2-Fluoro-4-(4-methyl-4-(pyrrolidin-1-yl)piperidin-1-yl)phenyl)-2-methyl-1H-imidazol-4-yl)-N-(1-(methylsulfonyl)piperidin-4-yl)-5-(trifluoromethyl)pyrimidin-2-amine]"
2,≥ 7.30,"CNCc1ccc(-n2cc(-c3nc(N[C@H]4CCN(S(C)(=O)=O)C[C@H]4F)ncc3C(F)(F)F)nc2C)c(F)c1 [Example 287, N-((3R,4S)-3-Fluoro-1-(methylsulfonyl)piperidin-4-yl)-4-(1-(2-fluoro-4-((methylamino)methyl)phenyl)-2-methyl-1H-imidazol-4-yl)-5-(trifluoromethyl)pyrimidin-2-amine]"
3,≥ 7.30,"CS(=O)(=O)N1CCC(Nc2ncc(C(F)(F)F)c(-c3cn(-c4ccc(CN5CCN6CCCC6C5)cc4Cl)cn3)n2)CC1 (stereo not drawn) [Example 212, 4-(1-(2-Chloro-4-((hexahydropyrrolo-[1,2-a]pyrazin-2(1H)-yl)methyl)phenyl)-1H-imidazol-4-yl)-N-(1-(methylsulfonyl)-piperidin-4-yl)-5-(trifluoromethyl)-pyrimidin-2-amine]"
4,≥ 7.30,"CS(=O)(=O)N1CCC(Nc2ncc(C(F)(F)F)c(-c3cn(-c4cccc(CN5CC(O)C5)c4Cl)cn3)n2)CC1 [Example 82, 1-(2-Chloro-3-(4-(2-((1-(methylsulfonyl)piperidin-4-yl)amino)-5-(trifluoromethyl)pyrimidin-4-yl)-1H-imidazol-1-yl)benzyl)azetidin-3-ol]"
5,≥ 7.30,"CS(=O)(=O)N1CCC(Nc2ncc(C(F)(F)F)c(-c3cn(-c4ccc(CN5CC[C@@H](O)C5)cc4C#N)cn3)n2)CC1 [Example 342, (R)-5-((3-Hydroxypyrrolidin-1-yl)methyl)-2-(4-(2-((1-(methylsulfonyl)piperidin-4-yl)amino)-5-(trifluoromethyl)pyrimidin-4-yl)-1H-imidazol-1-yl)benzonitrile]"
6,≥ 7.30,"CN1CCN(Cc2ccc(-n3cnc(-c4nc(NC5CCN(S(C)(=O)=O)CC5)ncc4C(F)(F)F)c3)c(Cl)c2)CC1 [Example 209, 4-(1-(2-Chloro-4-((4-methylpiperazin-1-yl)methyl)phenyl)-1H-imidazol-4-yl)-N-(1-(methylsulfonyl)-piperidin-4-yl)-5-(trifluoromethyl)-pyrimidin-2-amine]"
7,≥ 7.30,"Cn1cncc1-c1ccc(-n2cnc(-c3nc(NC4CCN(S(C)(=O)=O)CC4)ncc3C(F)(F)F)c2)c(Cl)c1 [Example 124, 4-(1-(2-Chloro-4-(1-methyl-1H-imidazol-5-yl)phenyl)-1H-imidazol-4-yl)-N-(1-(methylsulfonyl)-piperidin-4-yl)-5-(trifluoromethyl)-pyrimidin-2-amine]"
8,≥ 7.30,"Cn1nncc1-c1ccc(-n2cnc(-c3nc(NC4CCN(S(C)(=O)=O)CC4)ncc3C(F)(F)F)c2)c(Cl)c1 [Example 122, 4-(1-(2-Chloro-4-(1-methyl-1H-1,2,3-triazol-5-yl)phenyl)-1H-imidazol-4-yl)-N-(1-(methyl-sulfonyl)piperidin-4-yl)-5-(trifluoro-methyl)pyrimidin-2-amine]"
9,≥ 7.30,"CN(C)CCc1ccc(-n2cnc(-c3nc(NC4CCN(S(C)(=O)=O)CC4)ncc3C(F)(F)F)c2)c(Cl)c1 [Example 157, 4-(1-(2-Chloro-4-(2-(dimethylamino)ethyl)phenyl)-1H-imidazol-4-yl)-N-(1-(methylsulfonyl)piperidin-4-yl)-5-(trifluoromethyl)pyrimidin-2-amine]"
